We go through 4 molecules from ChEMBL document CHEMBL1150064, “Scoparic acid A, a beta-glucuronidase inhibitor from Scoparia dulcis” (J Nat Prod, 1992).

One data set addresses T1, Beta-glucuronidase (Bos taurus, UniProt A3KMY8).
T1 sequence (A3KMY8 whole entry): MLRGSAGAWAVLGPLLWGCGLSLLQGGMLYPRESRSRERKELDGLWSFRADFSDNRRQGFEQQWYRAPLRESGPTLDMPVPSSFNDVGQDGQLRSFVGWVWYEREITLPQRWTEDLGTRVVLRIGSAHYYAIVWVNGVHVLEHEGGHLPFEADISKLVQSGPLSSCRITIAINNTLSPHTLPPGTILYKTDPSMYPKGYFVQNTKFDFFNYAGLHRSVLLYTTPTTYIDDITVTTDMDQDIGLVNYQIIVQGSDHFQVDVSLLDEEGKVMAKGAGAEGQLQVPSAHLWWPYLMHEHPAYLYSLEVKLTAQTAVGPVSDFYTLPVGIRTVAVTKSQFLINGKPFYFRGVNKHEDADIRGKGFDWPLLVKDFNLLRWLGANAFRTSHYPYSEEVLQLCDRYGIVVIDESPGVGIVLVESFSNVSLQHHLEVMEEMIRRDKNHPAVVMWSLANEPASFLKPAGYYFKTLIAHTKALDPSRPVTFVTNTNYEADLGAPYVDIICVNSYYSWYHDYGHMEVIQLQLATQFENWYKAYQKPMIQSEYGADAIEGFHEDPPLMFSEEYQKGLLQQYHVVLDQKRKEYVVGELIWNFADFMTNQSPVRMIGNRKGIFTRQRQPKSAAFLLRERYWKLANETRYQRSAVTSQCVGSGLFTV
As to the kind of experiment: Inhibition of bovine beta-glucuronidase.

The target in data set [1] is T2, Beta-glucuronidase (Bos taurus) (UniProt A3KMY8).
T2 sequence (whole entry): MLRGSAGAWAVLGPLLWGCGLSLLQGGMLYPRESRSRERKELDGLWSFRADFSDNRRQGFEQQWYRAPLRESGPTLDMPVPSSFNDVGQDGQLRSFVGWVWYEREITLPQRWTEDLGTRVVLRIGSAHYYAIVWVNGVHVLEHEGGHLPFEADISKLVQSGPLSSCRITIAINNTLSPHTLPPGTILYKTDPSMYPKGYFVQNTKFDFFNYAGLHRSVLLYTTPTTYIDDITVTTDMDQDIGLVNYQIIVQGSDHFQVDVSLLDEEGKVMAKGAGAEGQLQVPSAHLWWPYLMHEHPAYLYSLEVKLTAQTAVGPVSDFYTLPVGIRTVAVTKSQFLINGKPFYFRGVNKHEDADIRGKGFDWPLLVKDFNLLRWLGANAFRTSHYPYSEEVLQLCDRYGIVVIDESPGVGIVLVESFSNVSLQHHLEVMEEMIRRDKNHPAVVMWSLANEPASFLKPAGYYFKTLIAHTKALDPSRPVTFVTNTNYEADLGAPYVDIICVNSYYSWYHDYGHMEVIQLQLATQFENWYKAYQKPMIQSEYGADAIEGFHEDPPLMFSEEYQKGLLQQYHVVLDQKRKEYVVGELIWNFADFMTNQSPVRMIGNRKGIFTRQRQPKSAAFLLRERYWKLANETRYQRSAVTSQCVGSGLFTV
Put plainly: Inhibition of bovine beta-glucuroniase assessed as decrease in enzyme inhibition in presence of BSA. The note with it: concentration not given here.

Substrate in data set [2]: C=C1C[C@@H](OC(=O)c2ccccc2)[C@@H]2[C@](C)(CCC[C@@]2(C)C(=O)O)[C@@H]1CC/C(C)=C/CO
As to the kind of experiment: Activity at bovine beta-glucuroniase by Lineweaver-Burke plot. The note with it: Bos taurus.

Bounds are passed on as bounds.

As for `C=C1C[C@@H](OC(=O)c2ccccc2)[C@@H]2[C@](C)(CCC[C@@]2(C)C(=O)O)[C@@H]1CCC(C)=O` [SCOPARIC ACID B], the IC50 against Beta-glucuronidase is greater than 100 µM. Same read-out and setting: in the case of `C=C(C=O)CC[C@@H]1C(=C)C[C@@H](OC(=O)c2ccccc2)[C@@H]2[C@]1(C)CCC[C@@]2(C)C(=O)O` [SCOPARIC ACID C] it was 10 µM. As for `C=C1C[C@@H](OC(=O)c2ccccc2)[C@@H]2[C@](C)(CCC[C@@]2(C)C(=O)O)[C@@H]1CC/C(C)=C/CO` [SCOPARIC ACID A], the inhibition in data set [1] was 5%. The IC50 against Beta-glucuronidase stood at 6.8 µM.

B1: Beta-glucuronidase (Bos taurus), A3KMY8 (protein)
chain: MLRGSAGAWAVLGPLLWGCGLSLLQGGMLYPRESRSRERKELDGLWSFRADFSDNRRQGFEQQWYRAPLRESGPTLDMPVPSSFNDVGQDGQLRSFVGWVWYEREITLPQRWTEDLGTRVVLRIGSAHYYAIVWVNGVHVLEHEGGHLPFEADISKLVQSGPLSSCRITIAINNTLSPHTLPPGTILYKTDPSMYPKGYFVQNTKFDFFNYAGLHRSVLLYTTPTTYIDDITVTTDMDQDIGLVNYQIIVQGSDHFQVDVSLLDEEGKVMAKGAGAEGQLQVPSAHLWWPYLMHEHPAYLYSLEVKLTAQTAVGPVSDFYTLPVGIRTVAVTKSQFLINGKPFYFRGVNKHEDADIRGKGFDWPLLVKDFNLLRWLGANAFRTSHYPYSEEVLQLCDRYGIVVIDESPGVGIVLVESFSNVSLQHHLEVMEEMIRRDKNHPAVVMWSLANEPASFLKPAGYYFKTLIAHTKALDPSRPVTFVTNTNYEADLGAPYVDIICVNSYYSWYHDYGHMEVIQLQLATQFENWYKAYQKPMIQSEYGADAIEGFHEDPPLMFSEEYQKGLLQQYHVVLDQKRKEYVVGELIWNFADFMTNQSPVRMIGNRKGIFTRQRQPKSAAFLLRERYWKLANETRYQRSAVTSQCVGSGLFTV
B1: the Km in data set [2] was 14.3 mM.
